Source: PMC6943423, “Structure-Activity Study of an All-D Antimicrobial Octapeptide D2D” (Molecules, 2019)
Peptide text beside a SMILES is read from it.

What was measured:
[1] = test system: A. baumannii (ATCC 19606); assay type: cell-based, Acinetobacter baumannii; conditions: broth microdilution, MHB-II, ~5 × 10^5 CFU, 18–20 h at 37 °C, triplicate
Method: (§1) E. coli (ATCC 25922), S. aureus (ATCC 29213), P. aeruginosa (ATCC 27853) and A. baumannii (ATCC 19606).
(§2) Antimicrobial susceptibility testing was performed by broth dilution in MHB-II media using a protocol adapted from, with minor modifications. Briefly, the compounds were prepared in standard stocks of 1 mg/mL in milli-Q H2O. Antimicrobial dilutions were prepared in two times the final concentration (128 µg/mL) of the compounds. Bacterial suspensions were prepared from overnight cultures (MHB-II) by diluting to OD600 = 0.001 (Approximately 1 × 10^6 CFU). An amount of 100 µL MHB-II was transferred to all wells in column 1–9, excluding the antibiotics well (A1–A9). An amount of 200 µL of MHB-II was transferred to all wells in column 10–12. An amount of 200 µL peptide stock was transferred to each well from A1–9. A 2-fold serial dilution from row A–G was obtained by transferring 100 µL from row A to B, and continued until row G. Resulting in final concentration range of peptides: 128, 64, 32, 16, 8, 4, and 2 (µg/mL). Finally, 100 µL bacterial suspension (1 × 10^6 CFU) were added to all wells giving a final bacterial inoculum of approximately 5 × 10^5 colony forming units (CFU). The plates were incubated for 18–20 h at 37 °C.

S. aureus (ATCC 29213) = assay type: cell-based, Staphylococcus aureus; conditions: broth microdilution, MHB-II, ~5 × 10^5 CFU, 18–20 h at 37 °C, triplicate
Method: as §1, §2

human red blood cells = assay: Hemolytic activity; assay type: cell-based; conditions: 150 µM in PBS, 0.5% v/v fresh human RBC, 1 h at 37 °C, absorbance 414 nm, normalised to PBS (0%) and melittin (100%)
Procedure, shortened: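 Compounds at two-fold dilutions (2.35 to 150 μM) in PBS were incubated with 0.5% v/v fresh human erythrocytes for 1 h at 37 °C. Released hemoglobin in the supernatant was read at 414 nm and normalised to PBS (0%) and melittin (100%) controls; percent hemolysis is reported at 150 μM.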

[2] = test system: P. aeruginosa (ATCC 27853); assay type: cell-based, Pseudomonas aeruginosa; conditions: broth microdilution, MHB-II, ~5 × 10^5 CFU, 18–20 h at 37 °C, triplicate
Method: as §1, §2

E. coli (ATCC 25922) = assay type: cell-based, Escherichia coli; conditions: broth microdilution, MHB-II, ~5 × 10^5 CFU, 18–20 h at 37 °C, triplicate
Method: as §1, §2

Structure (SMILES): CCCC[C@@H](NC(=O)[C@@H](CCCCN)NC(=O)[C@@H](Cc1cccc2ccccc12)NC(=O)[C@@H](CCCCN)NC(=O)[C@H](N)Cc1ccccc1)C(N)=O [Compound 29, fk(1-nal)k(nle)-NH2] (HELM PEPTIDE1{[dF].[dK].[O=C([C@@H](Cc1cccc2ccccc12)N[*:1])[*:2]].[dK].[CCCC[C@@H](N[*:1])C(=O)[*:2]].[am]}$$$$V2.0; N-terminus assumed)
- Minimum Inhibitory Concentration A.B. [1]: >128 µg/mL
- Minimum Inhibitory Concentration S.A. (S. aureus (ATCC 29213)): >128 µg/mL
- %H (% Hemolysis at 150 µM) (human red blood cells): 12%
- Minimum Inhibitory Concentration P.A. [2]: 128 µg/mL
- Minimum Inhibitory Concentration E.C. (E. coli (ATCC 25922)): >128 µg/mL
